Test results: paper PMC12084349 (Communications Biology, 2025)

Key:
Aha1 = Aha1 (Homo sapiens, UniProt O95433); experiment: ITC; format: binding
Hsp90-NTD = Hsp90-NTD (Homo sapiens, UniProt P07900); experiment: [1H, […]] HSQC NMR titration; format: binding

Sequence of Aha1 (O95433 204-338): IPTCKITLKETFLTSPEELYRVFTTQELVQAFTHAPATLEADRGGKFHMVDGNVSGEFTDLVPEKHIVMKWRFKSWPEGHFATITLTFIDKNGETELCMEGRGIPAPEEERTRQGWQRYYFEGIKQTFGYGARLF

A Kd (Aha1) of 0.84 ± 0.35 µM and a Kd (Hsp90-NTD) of 15.1 ± 3.86 µM were found for CCc1oc2ccccc2c1C(=O)c1cc(Br)c(O)c(Br)c1 [Benzbromarone] in this work.
